Test results as given in patent US5789440A, “5,6-dihydropyrone derivatives as protease inhibitors and antiviral agents” (Warner-Lambert Company, priority 1994, dated 1998).
Converted amounts (≈) assume the structure as drawn.

Columns and labels:
[1] = target: T1, HIV-1 Protease (Human immunodeficiency virus type 1 group M subtype B, UniProt P04585); test: HIV protease inhibition (undecapeptide substrate cleavage, HPLC); type: biochemical; settings: 37° C., 5 min, 40 μM substrate, pH 4.7, 2% DMSO, read-out: 50% INHIBITION CONCENTRATION
T1 construct: HIV-1 Protease; purchased Bachem Bioscience Inc
Procedure: 1.0 mM dithiothreitol (DTT) was prepared fresh daily in 0.1% polyethylene glycol (mw 8000) 80 mM NaOAc, 160 mM NaCl, 1.0 mM EDTA, and brought to pH 4.7 with HCl.
The enzyme is obtained from Bachem Bioscience Inc. The undiluted enzyme is thawed from -80° C. and diluted 50-fold with DTT buffer. The solution is always kept at 0° C. on ice water and used in the experiment within 20 minutes after thawing.
Substrate III from Bachem Bioscience Inc. is the undecapeptide H-His-Lys-Ala-Arg-Val-Leu-p-Nitrophenylalanine-Glu-Ala-Norleucine-Ser-NH2 (>97% purity). A 200 μM stock solution in DTT buffer is prepared and stored on ice. Substrate solution is prepared fresh daily.
10 mM inhibitor (I) in dimethyl sulfoxide (DMSO) is diluted to 200 μM with DTT buffer. From the 200 μM stock solution is made a 10 μM stock solution with 2% DMSO in DTT buffer. The two inhibitor solutions are used to make final [I] =100, 50, 20, 10, 5, 2, 1, 0.5 and 0 μM with 2% DMSO in DTT buffer in each reaction well (total inhibitor volume of 50 μl).
To each reaction well is added 20 μl of substrate (final concentration of 40 μM), 50 μl of inhibitor (at a concentration such that final dilution will produce the test concentration) and 20 μl of DTT buffer. The reaction plate (96 wells) is incubated at 37° C. for at least 5 minutes.
10 μl of the diluted protease is added to the reaction well while the reaction plate is shaking. Once shaken for 10 seconds, the plate is returned to the heating block at 37° C. (final reaction volume 100 μl.)
The reaction is incubated for 5 minutes at 37° C. The reaction is stopped by placing the reaction plate on the shaker and adding 20 μl of 10% trifluoroacetic acid (TFA) and shaking for 10 seconds. The amount of proteolysis is then determined by separation of noncleaved substrate and two cleaved products with reverse-phase HPLC, while measuring absorbance at 220 nm to determine the relative peak areas of the three components. The relative peak areas are used to calculate % conversion to product as a function of inhibitor concentration. The data are plotted as % Control (the ratio of % conversion in the presence and absence of inhibitor×100) versus inhibitor concentration and fitted with the equation Y=100/1+(X/IC50)^A, where IC50 is the inhibitor concentration at 50% inhibition and A is the slope of the inhibition curve.

[2] = system: HIV1iiib in H9 cells; test: Antiviral activity in H9 cells (acute HIV-1 infection, reverse transcriptase assay); type: cell-based; settings: Human immunodeficiency virus 1, multiplicity of infection 0.01, 0.1% DMSO, read-out: Concentration for 50% Protection
Procedure: Using the general methods of Pauwels et al., (J. Virol. Methods, 16, 171-185, 1987) and Mann et al. (AIDS Research and Human Retroviruses, 253-255, 1989 (anti-viral assays of active HIV-1 infection were performed in the H9 cell line. Cultures were batch infected in 1 ml of RPM1 1640 media/10% fetal calf serum containing 10^5 infectious doses of HIV1iiib for an effective multiplicity of infection of 0.01. After 2 hours of viral absorption, cells were washed once and palted in 96-wellmicrotiter plates at a density of 10^4 cells per well. Test compounds were added to produce the desired concentration of drug and 0.1% DMSO in a final volume of 200 μl. Uninfected parallel cultures were maintained for XTT cytotoxicity assay at 7 days post infection. Cultures were tested for viral replication by reverse transcriptase assay at 4 and 7 days post infection.

[3] = system: Staphylococcus aureus H228; test: Antibacterial activity, microtitration dilution method; type: cell-based; settings: read-out: minimum inhibitory concentration (MIC)
From the text: (§1) The compounds of the invention display antibacterial activity when tested by the microtitration dilution method as described in Heifetz, et al., Antimicr. Agents. & Chemoth. 6: 124 (1974) which is incorporated herein by reference.
(§2) By use of the above referenced method, the following minimum inhibitory concentration values (MICs in μg/mL) were obtained for representative compounds of the invention vs. clinically relevant gram positive pathogens which have become highly resistant to conventional therapy in recent years.

[4] = system: Streptococcus pneumonia 5V-1; test: as above; type: cell-based; settings: Streptococcus pneumoniae, 5V1, read-out: minimum inhibitory concentration (MIC)
From the text: as §1, §2

[5] = system: Staphylococcus aureus UC-76; test: as above; type: cell-based; settings: UC76, read-out: minimum inhibitory concentration (MIC)
From the text: as §1, §2

[6] = system: Enterococcus foecalis MGH2; test: as above; type: cell-based; settings: read-out: minimum inhibitory concentration (MIC)
From the text: as §1, §2

[7] = system: Streptococcus pyogenes C203; test: as above; type: cell-based; settings: read-out: minimum inhibitory concentration (MIC)
From the text: as §1, §2

[8] = system: HIV; settings: R. Nagorny et al., AIDS 7: 129-130 (1993); cited from earlier work

SMILES | IC50 [1] [µM] | EC50 [2] [µM] | MIC [3] [µg/mL] | MIC [4] [µg/mL] | MIC [5] [µg/mL] | MIC [6] [µg/mL] | MIC [7] [µg/mL] | inhibition of cell-free and cell-mediated HIV infection (in words) [8]
O=C1OC(CCc2ccccc2)(c2ccccc2)CC(O)=C1SCc1ccc2c(c1)OCO2 (racemic) [Example 107, 3-(Benzo[1,3]dioxol-5-ylmethylthio)-5,6-dihydro-4-hydroxy-6-phenyl-6-(2-phenylethyl)-2H-pyran-2-one] | 0.11 | 8 | 50 (≈ 109 µM) | 50 (≈ 109 µM) | 100 (≈ 217 µM) | 50 (≈ 109 µM) | 50 (≈ 109 µM) | 
Cc1ccc(C(C)C)c(SC2=C(O)CC(CCc3ccc4c(c3)OCO4)(c3ccccc3)OC2=O)c1 (stereo not shown) [Example 133] |  |  | 6.25 (≈ 12.4 µM) | 12.5 (≈ 24.9 µM) | 12.5 (≈ 24.9 µM) | 25 (≈ 49.7 µM) | 25 (≈ 49.7 µM) | 
CC(=O)CC(c1ccccc1)c1c(O)c2ccccc2oc1=O (stereo not drawn) [Warfarin, 3-(α-acetonylbenzyl)-4-hydroxycoumarin] |  |  |  |  |  |  |  | inhibiting cell-free and cell-mediated HIV infection
